Data reported in patent US20240207454A1, “NEURO-BEHAVIORAL ASSAY FOR PHYSIOLOGICAL EVALUATION OF WATER-SOLUBLE ANESTHETICS” (Northeastern University, priority 2022, published 2024).
Values joined by “and” are separate entries in the source; they are usually repeats but may differ in a detail not shown here. Identical values can stand only once.

Experiments:
[1] = tested on: Apteronotus leptorhynchus; test: Neuro-behavioral assay: chirps (EOD modulations); format: in vivo; conditions: for Number of chirps during the 30 min immediately following anesthesia (mean) / Number of chirps during the 30 min immediately following anesthesia (median) / Number of chirps during the 30 min immediately following anesthesia (range among fish): 2.5% urethane or 0.02% MS-222, n=8 fish
Description: Previous research has shown that transient modulations of the EOD may occur, both spontaneously and through stimulation with electric signal mimicking the EOD of a conspecific. These modulations are brief (several tens of milliseconds) and involve frequency increases. They are commonly referred to as ‘chirps.’
To identify chirp instances, the time-frequency data {(Tk, fk)}k=q^q+n^wind, q=1, . . . , M−nwind−1, was considered in a moving time window containing nwind+1 samples. The first and last nmed samples in each window are used to establish the instantaneous base frequency before chirping:
to the data set {(ξp,q, ϕp,q)}p=0^n^wind for each q=1, 2, . . . time window. This curve fitting was carried out over a fixed search range α∈[αmin, αmax] discretized evenly using nα+1 number points. For each q=1, 2, . . . time window, the coefficient of determination Rq,i^2 was computed for each point αi=αmin+i (αmax−αmin)/nα, i=0, . . . , nα of the discretized search range. Then, the fitted curve for each q=1, 2, . . . time window as Φ (ξ; ? ), with
Subsequently, using Algorithm 1, contiguous segments of successive windows are identified within qε and for each segment the time window q associated with the maximum ? value is reported together with the corresponding parameter ? and maximum frequency rise Δfq.
Nonlinear regression is performed on data points within these time windows using the three-parameter model Ψ(ξ; α, Δf, τ)=Δf Φ(ξ−τ; α) with initial parameters α= ? , Δf=Δfq, and τ=0. Finally,
as time instance, ? as maximum frequency rise and dchirp,q=ln(7+4√{square root over (3)})/αq is reported as duration of a chirp for each q reported time window with parameter estimates αq, ? , τq. Here the formula for chirp duration corresponds to the half prominence of Ψ(ξ; αq, ? , τq).
(§1) The experimental design is outlined in FIG. 2. To determine the baseline EOD frequency, the fish's EOD was recorded for 30 min. Then, the fish was transferred into a glass beaker containing either 2.5% urethane (Acros Organics, New Jersey, USA) or 0.02% MS-222 (Western Chemical, Washington, USA), each dissolved in water from the fish's isolation tank. As a control, the fish was moved into an identical glass beaker containing aquarium water only. The temperatures of the anesthetic solutions or the aquarium water in the beaker were similar (±1° C.) to the temperature of the water in the fish's isolation tank.
(§2) The fish was left in the anesthetic solution until both anal fin undulation and opercular movement ceased. It was then returned to its isolation tank where recording of the EOD continued for 180 min. For urethane anesthesia, treatment including transfer to and from the beaker took between 4-5 min. MS-222 anesthesia required longer exposure to the anesthetic so that the entire treatment lasted between 9-15 min. Control experiments were designed such that the handling of the fish and the time the fish spent outside its isolation tank were similar to the corresponding anesthesia experiments (urethane control: 5-8 min; MS-222 control: 7-10 min).
The method described in Eske et al. (2023) was employed for the detection of chirps. This method assumes that the frequency shape of chirps normalized by the peak frequency rise is described in time by function
where ξ is the time coordinate measured from the chirp's peak frequency and α is an unknown parameter identified by the chirp detection method (FIG. 2). This function closely matches the shape of type-2 chirps, and, though to a lesser extent, the shape of type-1 chirps. […]

[2] = tested on: Apteronotus leptorhynchus; test: Neuro-behavioral assay: locomotor activity and induction of anesthesia; format: in vivo; conditions: for Treatment time until anal fin undulation and opercular movement ceased, including transfer to and from the beaker: 2.5% urethane or 0.02% MS-222 immersion
Experimental: FIG. 30 Locomotor activity inferred from amplitude fluctuations of the EOD. After recording of the baseline EOD for 6 min, the fish was transferred to a 0.02% MS-222 solution in aquarium water for 5 min. After return of the fish to its home tank, the EOD recording continued for 15 min. To determine the locomotor activity index, positive and negative deviations from an arbitrarily set threshold value of the amplitude were determined every 1 sec, and the standard deviation of the absolute values of these amplitude deviations were calculated for 30-sec time windows. […] Recovery of the locomotor activity occurred within some 2 min after the fish was returned to its home tank (filled circles).
as §1, §2
To examine the effect of eugenol on EOD frequency and chirping behavior, the following experiments were conducted using 8 fish (FIG. 11): First, the baseline EOD was recorded in the fish's home tank (50 cm×30 cm×30 cm) for 30 min. Then, for the 5-min treatment session, the shelter tube with the fish was transferred to a smaller (experimental) tank (30 cm×20 cm×20 cm) containing either eugenol dissolved in aquarium water at a certain concentration (30 μL/L, 45 μL/L, or 60 μL/L; ‘test condition’) or aquarium water only (‘control condition’). The temperature in the experimental tank was similar to the temperature in the home tank (median difference: ±0.2° C.). Finally, the shelter tube with the fish was returned to the home tank, where recording continued for 180 min. Throughout the 215 min of pre-treatment, treatment, and post-treatment, the recording of the EOD was interrupted only for a few seconds during which the fish was transferred between its home tank and the experimental tank. The order of the four treatment conditions was determined using a randomized complete block design. Each test or control experiment in a given fish was conducted on a different day.
Most of the time, fish in the shelter tube maintained an upright position, with their longitudinal axis parallel to the walls of the tube. Forward and backward swimming occurred frequently and appeared to be mediated primarily by high-frequency undulations of the anal fin. Sporadically, the fish made 180° turns around its vertical axis.
Neuro-Behavioral Assay extended to the monitoring of locomotor activity. The electric organ discharge (EOD) that is recorded as the assayed behavior contains not only information about the frequency and possible modulations of the EOD (‘chirps’) but also about the locomotor activity of the fish. […]

[3] = 0.02% MS-222, 5 min exposure (FIG. 30)

`C=CCc1ccc(O)c(OC)c1` [eugenol] was tested, and the “Difference in increase in the number of chirps (30 min before vs 30 min after exposure): Median” value ([1]; eugenol 30 μL/L vs. Control) was 97.5, the “Difference in increase in the number of chirps between pairs of eugenol concentrations: Median” value ([1]; eugenol 45 μL/L vs. 30 μL/L) was 8 and the “Difference in increase in the number of chirps (30 min before vs 30 min after exposure): Median” value ([1]; eugenol 45 μL/L vs. Control) was 137. The “Difference in increase in the number of chirps between pairs of eugenol concentrations: Median” value ([1]; eugenol 60 μL/L vs. 30 μL/L) was 60.5, the “Difference in increase in the number of chirps between pairs of eugenol concentrations: Median” value ([1]; eugenol 60 μL/L vs. 45 μL/L) was 23 and the “Difference in increase in the number of chirps (30 min before vs 30 min after exposure): Median” value ([1]; eugenol 60 μL/L vs. Control) was 160. The “Fish in which anal fin continued undulating throughout the 5-min exposure” value ([2]; 30 μL/L eugenol) was 3 out of 8, the “Time after which body movements ceased (mean)” value ([2]; 30 μL/L eugenol, 8 fish) was 1.8 min and the “Time after which body movements ceased (range)” value ([2]; 30 μL/L eugenol, 8 fish) was 1 to 3 min. The “Time after which anal fin undulation stopped” value ([2]; 30 μL/L eugenol, the 5 fish in which it stopped) was 1 to 3 min, the “Time to anesthesia (total loss of equilibrium and cessation of any movement, including anal fin undulation)” value ([2]; 45 μL/L and 60 μl/L eugenol) was 1 to 4 min and the “Fish in which anal fin continued undulating throughout the 5-min exposure” value ([2]; 45 μL/L eugenol) was 1 out of 8. The “Time after which body movements ceased (mean)” value ([2]; 45 μL/L eugenol, 8 fish) was 1.4 min, the “Time after which body movements ceased (range)” value ([2]; 45 μL/L eugenol, 8 fish) was 1 to 2 min and the “Time after which anal fin ceased undulating” value ([2]; 45 μL/L eugenol, the 7 fish in which it ceased) was 1 to 3 min. The “Time after which body movements ceased (each fish)” value ([2]; 60 μL/L eugenol, 8 fish) was 1 min.

`CCOC(N)=O` [urethane] was tested, and the “Number of chirps during the 30 min immediately following anesthesia (mean)” value [1] was 1852 chirps and 1500 chirps, the “Number of chirps during the 30 min immediately following anesthesia (median)” value [1] was 1541 chirps and the “Number of chirps during the 30 min immediately following anesthesia (range among fish)” value [1] was 568-4434 chirps. For the same molecule, the “Time T to which type-2 chirping at higher rates persists after exposure” value ([1]; 2.5% urethane, single recording (FIG. 20)) was ~4600 s and the “Treatment time until anal fin undulation and opercular movement ceased, including transfer to and from the beaker” value [2] was 4 to 5 min.

`CCOC(=O)c1cccc(N)c1` [MS-222, 3-aminobenzoic acid ethyl ester methanesulfonate] was tested, and the “Time chirp rates remained elevated after anesthesia” value ([1]; 0.02% MS-222) was ≤ 3 h, the “Number of chirps during the 30 min immediately following anesthesia (mean)” value [1] was 48 chirps and the “Number of chirps during the 30 min immediately following anesthesia (median)” value [1] was 30 chirps. For the same molecule, the “Number of chirps during the 30 min immediately following anesthesia (range among fish)” value [1] was 1-156 chirps, the “Time from start of exposure until locomotor activity drops dramatically” value [2, 3] was ≤ 2 min and the “Time to recovery of locomotor activity after return to home tank” value [2, 3] was ≤ 2 min. For the same molecule, the “Treatment time until anal fin undulation and opercular movement ceased, including transfer to and from the beaker” value [2] was 9 to 15 min.
